The data set concerns GENE-TOX genotoxicity assays, various organisms and cells. Nature of the data set: GENE-TOX mutagenicity studies. Particulars: for call: Assay Type: In vivo carcinogenicity studies.
[1] abbreviates: Species/Cell Type: Drosophila melanogaster, Assay Type: Sex-linked recessive lethal gene mutation, Assay Code: SRLT, Evaluation Type: Evaluation A (Pre-1980).
Where [2] appears, read: Species/Cell Type: Salmonella typhimurium (one or more of the five standard strains: TA98, TA100, TA1535, TA1537, and TA1538), Assay Type: Histidine reverse gene mutation, Ames assay, Assay Code: SAL+*, Activation: With metabolic activation, Evaluation Type: Evaluation A (Pre-1980).
Setting [3] is: Species/Cell Type: Escherichia coli WP2 UVRA, Assay Type: Tryptophan reverse gene mutation, Assay Code: WPU-*, Activation: With metabolic activation, Evaluation Type: Evaluation A (Pre-1980).
[4] abbreviates: Species/Cell Type: Chinese hamster lung (V79) cells, Assay Type: Forward gene mutation at the HPRT or ouabain locus, Assay Code: V79+, Evaluation Type: Evaluation A (Pre-1980).
Where [5] appears, read: Species/Cell Type: Saccharomyces cerevisiae, Assay Type: Mitotic recombination or gene conversion, Assay Code: YEC+, Evaluation Type: Evaluation A (Pre-1980).
Setting [6] is: Species/Cell Type: Salmonella typhimurium, Serratia marcesens, Assay Type: Forward and reverse gene mutation, host-mediated assay, Assay Code: HM2T, Evaluation Type: Evaluation A (Pre-1980).
Setting [7] is: Species/Cell Type: Salmonella typhimurium (one or more of the five standard strains: TA98, TA100, TA1535, TA1537, and TA1538), Assay Type: Histidine reverse gene mutation, Ames assay, Assay Code: SALT, Evaluation Type: Evaluation A (Pre-1980).
Where [8] appears, read: Species/Cell Type: Allium cepa, Assay Type: Chromosome aberrations, Assay Code: ALC+D, Dose Response: With dose response, Evaluation Type: Evaluation A (Pre-1980).
[9] abbreviates: Species/Cell Type: Nonhuman, Assay Code: CCGT, Evaluation Type: Evaluation A (Pre-1980).
Setting [10] is: Species/Cell Type: Escherichia coli WP2, Assay Type: Tryptophan reverse gene mutation, Assay Code: WP2-, Evaluation Type: Evaluation A (Pre-1980).
Setting [11] is: Species/Cell Type: Rodents, Sex: Male, Assay Type: Dominant lethal test, Assay Code: DLT-, Evaluation Type: Evaluation A (Pre-1980).
Setting [12] is: Species/Cell Type: Bacillus subtilis (H17 vs M45), Assay Type: Rec-assay, spot test, DNA effects (bacterial DNA repair), Assay Code: REW-, Evaluation Type: Evaluation A (Pre-1980).
[13] abbreviates: Species/Cell Type: Salmonella typhimurium (one or more of the five standard strains: TA98, TA100, TA1535, TA1537, and TA1538), Assay Type: Histidine reverse gene mutation, Ames assay, Assay Code: SAL+, Evaluation Type: Evaluation A (Pre-1980).

The source made the active and inactive calls. No rule for the calls is given here.

Turning to `CC1CCCCN1N=O` (stereo unspecified), the mutagenic call is, setting by setting: (Species/Cell Type: Drosophila melanogaster, Assay Type: Aneuploidy, partial sex chromosome loss, chromosome aberrations, Assay Code: DAPT, Evaluation Type: Evaluation A (Pre-1980)) “no conclusion”; (Species/Cell Type: Drosophila melanogaster, Assay Type: Aneuploidy, whole sex chromosome loss, chromosome aberrations, Assay Code: DAC-M, Evaluation Type: Evaluation A (Pre-1980)) “inactive; negative”; under setting [1], “no conclusion”; (Species/Cell Type: Saccharomyces cerevisiae, Assay Type: Forward gene mutation, Assay Code: YEF+*, Activation: With metabolic activation, Evaluation Type: Evaluation A (Pre-1980)) “active; positive”; (Species/Cell Type: Saccharomyces cerevisiae, Assay Type: Reverse gene mutation, Assay Code: YER+*, Activation: With metabolic activation, Evaluation Type: Evaluation A (Pre-1980)) “active; positive”; under setting [2], “active; positive”.

In the case of `O=C(O)CNC(=O)c1ccccc1`, the mutagenic call was “inactive; negative” (Species/Cell Type: Escherichia coli WP2, Assay Type: Tryptophan reverse gene mutation, Assay Code: WP2-*, Activation: With metabolic activation, Evaluation Type: Evaluation A (Pre-1980)) and “inactive; negative” under setting [3].

In the case of `Oc1cc2cc3ccccc3cc2c2ccccc12`, the mutagenic call is, setting by setting: under setting [4], “active; positive”; (Species/Cell Type: Mouse prostate cells, Assay Type: Cell transformation, Assay Code: CTM-, Evaluation Type: Evaluation A (Pre-1980)) “inactive; negative”; (Species/Cell Type: Syrian hamster embryo (SHE) cells, Assay Type: Cell transformation, clonal assay, Assay Code: CTC+, Evaluation Type: Evaluation A (Pre-1980)) “active; positive”.

For the compound `CCc1ccc(O)c(O)c1`, the mutagenic call (Species/Cell Type: Allium cepa, Assay Type: Chromosome aberrations, Assay Code: ALC-, Evaluation Type: Evaluation A (Pre-1980)) was “inactive; negative”.

As to `CCCCC(CC)COC(=O)c1ccccc1C(=O)O` (stereo unspecified), the mutagenic call runs as follows: (Species/Cell Type: Chinese hamster ovary (CHO) cells, Assay Type: Forward gene mutation at the HPRT locus, Assay Code: CHOT, Evaluation Type: Evaluation B (Post-1980)) “no conclusion”; (Species/Cell Type: Nonhuman, Assay Type: Sister-chromatid exchange (SCE) in vitro, Assay Code: SC2-, Evaluation Type: Evaluation B (Post-1980)) “inactive; negative”.

Regarding `[N-]=[N+]=Nc1ccc2c(c1)Cc1ccccc1-2`, where the note is “Species/Cell Type: Mouse (C3H/10T1/2) cells, Assay Type: Cell transformation, Assay Code: CTH-, Evaluation Type: Evaluation A (Pre-1980)”, the mutagenic call is “inactive; negative”.

On to `c1ccc2cc3c(cc2c1)-c1cccc2cccc-3c12`, for which, where the note is “Species/Cell Type: Nonhuman, Assay Code: CCG+, Evaluation Type: Evaluation A (Pre-1980)”, the call is “active; positive”.

For the compound `CN(C)N=Nc1cccc(O)c1`, the mutagenic call by setting is: under setting [1], “no conclusion”; under setting [5], “active; positive”.

On to `CCCCOC(=O)COc1cc(Cl)c(Cl)cc1Cl`, for which the mutagenic call under setting [6] is listed as “no conclusion”.

On to `O=CNc1nc(-c2cc([N+](=O)[O-])c[nH]2)cs1`, for which the mutagenic call under setting [7] is recorded as “no conclusion”.

Regarding `Oc1cc(O)cc(O)c1`, under setting [8], the mutagenic call is “active; positive”.

As for `Cc1c2ccccc2cc2c3c(ccc12)C=CC(O)C3O` (stereo unspecified), the mutagenic call under setting [2] was “active; positive”.

In the case of `CCCCNP(=O)(N1CC1)N1CC1`, the mutagenic call was “active; positive” (Species/Cell Type: Drosophila melanogaster, Assay Type: Sex-linked recessive lethal gene mutation, Assay Code: SRL+, Evaluation Type: Evaluation A (Pre-1980)); “active; positive” (Species/Cell Type: Nonhuman, Assay Type: Chromosome aberrations in vitro, Assay Code: CY&+, Evaluation Type: Evaluation A (Pre-1980)); “active; positive” (Species/Cell Type: Schizosaccharomyces pombe, Assay Type: Reverse gene mutation, Assay Code: YEZ+, Evaluation Type: Evaluation A (Pre-1980)).

As to `CN1CCC(=C2c3ccccc3C3OC3c3ccccc32)CC1` (stereo unspecified), the mutagenic call under setting [7] is listed as “no conclusion”.

In the case of `Cc1c2ccccc2c(C)c2c1ccc1c(O)cccc12`, under “Species/Cell Type: Chinese hamster lung (V79) cells, Assay Type: Forward gene mutation at the HPRT or ouabain locus, Assay Code: V79-*, Activation: With metabolic activation, Evaluation Type: Evaluation A (Pre-1980)”, the mutagenic call was “inactive; negative”. The call under setting [9] is reported as “no conclusion”.

On to `ClC1C(Cl)C(Cl)C(Cl)C(Cl)C1Cl` (stereo unspecified), for which the mutagenic call is, setting by setting: under setting [8], “active; positive”; under setting [1], “no conclusion”; (Species/Cell Type: Hordeum vulgare (barley), Assay Type: Chromosome aberrations, Assay Code: HOC+D, Dose Response: With dose response, Evaluation Type: Evaluation A (Pre-1980)) “active; positive”; under setting [5], “active; positive”; (Species/Cell Type: Saccharomyces cerevisiae, Assay Type: Reverse gene mutation, Assay Code: YER-*, Activation: With metabolic activation, Evaluation Type: Evaluation A (Pre-1980)) “inactive; negative”; under setting [6], “no conclusion”. Besides, the mutagenic call is, setting by setting: (Species/Cell Type: Tradescantia species, Assay Type: Chromosome aberrations, Assay Code: TRC+D, Dose Response: With dose response, Evaluation Type: Evaluation A (Pre-1980)) “active; positive”; (Species/Cell Type: Vicia faba, Assay Type: Chromosome aberrations, Assay Code: VIC+D, Dose Response: With dose response, Evaluation Type: Evaluation A (Pre-1980)) “active; positive”. Also, for the setting “Species/Cell Type: Nonhuman, Assay Code: CCG+L, Evaluation Type: Evaluation A (Pre-1980)”, the call is “active; positive”.

Turning to `Cc1c(N(C)CS(=O)(=O)O)c(=O)n(-c2ccccc2)n1C`, the mutagenic call (Species/Cell Type: Human, Assay Type: Sister-chromatid exchange (SCE) in vitro, Assay Code: SC1T, Evaluation Type: Evaluation B (Post-1980)) is recorded as “no conclusion”.

Regarding `CN1CCN(CC(=O)N/N=C/c2ccc([N+](=O)[O-])o2)CC1`, the mutagenic call under setting [10] is “inactive; negative”; the mutagenic call (Species/Cell Type: Mammalian polychromatic erythrocytes, Assay Type: Micronucleus test, chromosome aberrations, Assay Code: MNT+, Evaluation Type: Evaluation A (Pre-1980)) was “active; positive”; the mutagenic call under setting [11] is “inactive; negative”; the mutagenic call under setting [5] was “active; positive”.

Take `O=S(O)O`: the mutagenic call under setting [3] is “inactive; negative”; the mutagenic call (Species/Cell Type: Mouse, Sex: Male, Assay Type: Heritable translocation test, chromosome aberrations, Assay Code: HTT-, Evaluation Type: Evaluation A (Pre-1980)) is “inactive; negative”; the mutagenic call (Species/Cell Type: Mouse, Sex: Male, Assay Type: Specific locus test, gene mutation, Assay Code: SLT-, Evaluation Type: Evaluation A (Pre-1980)) was “inactive; negative”; the mutagenic call (Species/Cell Type: Nonhuman, Assay Type: Sister-chromatid exchange (SCE) in vitro, Assay Code: SC2+D, Dose Response: With dose response, Evaluation Type: Evaluation B (Post-1980)) is “active; positive”; the mutagenic call under setting [11] was “inactive; negative”; the mutagenic call (Species/Cell Type: Saccharomyces cerevisiae, Assay Type: Reverse gene mutation, Assay Code: YER+, Evaluation Type: Evaluation A (Pre-1980)) was “active; positive”.

For the compound `CC(C)(C)NCC(O)COc1cccc2c1CCC(=O)N2` (stereo unspecified), the mutagenic call is, setting by setting: under setting [12], “inactive; negative”; under setting [10], “inactive; negative”; (Species/Cell Type: Escherichia coli WP2 UVRA, Assay Type: Tryptophan reverse gene mutation, Assay Code: WPU-, Evaluation Type: Evaluation A (Pre-1980)) “inactive; negative”; (Species/Cell Type: Salmonella typhimurium, Assay Type: Forward and reverse gene mutation, host-mediated assay, Assay Code: HMA-, Evaluation Type: Evaluation A (Pre-1980)) “inactive; negative”.

For `[Cl][Pb][Cl]`, the mutagenic call under setting [12] was “inactive; negative”.

As to `CO[C@H](C(=O)[C@@H](O)[C@@H](C)O)[C@@H]1Cc2cc3cc(O[C@H]4C[C@@H](O[C@H]5C[C@@H](O)[C@H](O)[C@@H](C)O5)[C@H](O)[C@@H](C)O4)c(C)c(O)c3c(O)c2C(=O)[C@H]1O[C@H]1C[C@@H](O[C@H]2C[C@@H](O[C@H]3C[C@](C)(O)[C@H](O)[C@@H](C)O3)[C@@H](O)[C@@H](C)O2)[C@H](O)[C@@H](C)O1`, under “Species/Cell Type: Chinese hamster ovary (CHO) cells, Assay Type: Forward gene mutation at the HPRT locus, Assay Code: CHO+, Evaluation Type: Evaluation B (Post-1980)”, the mutagenic call is “active; positive”.

On to `O=P(O)(O)CCCl`, for which, under setting [8], the mutagenic call was “active; positive”.

Consider `O=C(CCl)CCl`, for which the mutagenic call was “no conclusion” under setting [1] and “active; positive” under setting [13].

Consider `Nc1cccc(Cl)c1`, for which the mutagenic call (Species/Cell Type: Mouse, Sex: Male, Assay Type: Sperm morphology, Assay Code: SPI-, Evaluation Type: Evaluation A (Pre-1980)) is “inactive; negative”.

Regarding `c1ccc2c3c4c(ccc5cccc(c54)[C@H]4O[C@@H]34)cc2c1`, the mutagenic call reads like this: under setting [4], “active; positive”; under setting [13], “active; positive”. In addition, under setting [9], the call is given as “no conclusion”.

Source of the values: PubChem BioAssay AID1259408 (Genetic Toxicology Data Bank (GENE-TOX), 2018).
